Some test systems named below: 786-0; OVCAR-3; MDA-MB-435; SK-OV-3; HCC 2998; MDA-N; SK-MEL-5; NCI-H460; SN12C; MCF7; M14; RPMI-8226; NCI/ADR-RES; OVCAR-8; SR; RXF 393; OVCAR-4; SW-620; UO-31; SF-539.
Common to all, as to assay: growth of human tumour cells (NCI), 48 h

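96-well plates; 48 h exposure; 5 concentrations. Endpoints by linear interpolation between flanking doses. Not reached: highest tested concentration assigned. At the GI50, growth is halved.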 Calls of active or inactive are those of the source. Cut-off read from the data, not from the text of the source: active = GI50 up to about 1.1 µM and inactive = higher.

For the molecule `O=[As](O)(O)c1ccc(Cc2ccc([As](=O)(O)O)cc2)cc1`, the GI50 is 0.356 µM (active) in the assay on 786-0; 0.839 µM (active) with OVCAR-3; 0.577 µM (active) in the assay on MDA-MB-435; 2.15 µM (inactive) in the assay on SK-OV-3; 1.91 µM (inactive) with HCC 2998; 0.421 µM (active) in the assay on MDA-N. For the same molecule, the GI50 in the assay on SK-MEL-5 is 0.632 µM (active); with NCI-H460, 0.91 µM (active); with SN12C, 0.64 µM (active); with MCF7, 0.284 µM (active); in the assay on M14, 1.06 µM (active); in the assay with RPMI-8226, 0.284 µM (active). The GI50 in the assay with NCI/ADR-RES was 1.48 µM (inactive); in the assay on OVCAR-8, 0.358 µM (active); in the assay with SR it was 0.269 µM (active); in the assay on RXF 393, 0.413 µM (active); in the assay on OVCAR-4, 1.9 µM (inactive); in the assay with SW-620, 0.27 µM (active). Also, the values for the GI50 with UO-31 and with SF-539 were 1.24 µM (inactive) and 0.193 µM (active), respectively.

Turning to `Cc1cc(S(=O)(=O)Nc2n[nH]c(-c3ccc(Cl)cn3)n2)c(S)cc1Cl`, the GI50 was 47.6 µM (inactive) in the assay with 786-0; 45.6 µM (inactive) with OVCAR-3; 43.1 µM (inactive) with MDA-MB-435; 88.3 µM (inactive) in the assay on SK-OV-3; 57.5 µM (inactive) in the assay on HCC 2998; 63.4 µM (inactive) in the assay with MDA-N. The GI50 in the assay with SK-MEL-5 is 44.4 µM (inactive); with NCI-H460 it was 36.9 µM (inactive); in the assay on SN12C it was > 100 µM (inactive); in the assay on MCF7 it was 74.1 µM (inactive); in the assay with M14 it was 76.6 µM (inactive); with RPMI-8226, > 100 µM (inactive). Besides, the GI50 in the assay with NCI/ADR-RES was 85.5 µM (inactive); in the assay with OVCAR-8 it was 48.8 µM (inactive); with SR, 47.8 µM (inactive); in the assay on RXF 393 it was 27.1 µM (inactive); in the assay with OVCAR-4, 53.8 µM (inactive); in the assay with SW-620 it was 83.6 µM (inactive). Also, the GI50 in the assay with UO-31 is 29.5 µM (inactive); with SF-539 it was 44.1 µM (inactive).

Consider `N=C(N)Nc1ccc(-c2ccc(NC(=N)N)cc2)cc1`, for which the GI50 in the assay with 786-0 is 24 µM (inactive); in the assay with OVCAR-3, 22 µM (inactive); with MDA-MB-435 it was 55 µM (inactive); in the assay on SK-OV-3 it was > 55.8 µM (inactive); in the assay on HCC 2998, 63 µM (inactive); in the assay on MDA-N it was 40.7 µM (inactive). Also, the GI50 is 16.3 µM (inactive) with SK-MEL-5; 17.1 µM (inactive) in the assay on NCI-H460; 12.4 µM (inactive) in the assay with SN12C; 39.2 µM (inactive) in the assay with MCF7; 36.1 µM (inactive) in the assay on M14; 19.5 µM (inactive) in the assay on RPMI-8226. The GI50 with NCI/ADR-RES was 42.5 µM (inactive); in the assay with OVCAR-8, 43.8 µM (inactive); in the assay on SR, 14.6 µM (inactive); in the assay on RXF 393 it was 22.4 µM (inactive); with OVCAR-4 it was 60.7 µM (inactive); in the assay on SW-620, 62.5 µM (inactive). Further, the GI50 in the assay on UO-31 was 46.1 µM (inactive); in the assay with SF-539, 20.9 µM (inactive).

Turning to `CC1CC(C)C2=NOS3=C2C1=NO3` (stereo not given), the GI50 with 786-0, in the assay on OVCAR-3, with MDA-MB-435, with SK-OV-3, in the assay with HCC 2998 and in the assay with MDA-N was > 100 µM (inactive) each time. For the same molecule, the GI50 is 30.8 µM (inactive) with SK-MEL-5; > 100 µM (inactive) with NCI-H460; > 100 µM (inactive) in the assay on SN12C; 82.8 µM (inactive) in the assay on MCF7; > 100 µM (inactive) with M14; > 100 µM (inactive) in the assay with RPMI-8226. Moreover, the GI50 in the assay on NCI/ADR-RES, in the assay on OVCAR-8, in the assay with SR, in the assay with RXF 393, in the assay with OVCAR-4 and in the assay with SW-620 was > 100 µM (inactive) each time. Moreover, the GI50 in the assay with UO-31 and in the assay with SF-539 was > 100 µM (inactive) in each case.

Regarding `COC1CC(C)([N+](=O)[O-])C(O)C(C)O1` (stereo not given), the GI50 with 786-0, with OVCAR-3, in the assay on MDA-MB-435, with SK-OV-3, in the assay on HCC 2998 and in the assay with MDA-N was > 100 µM (inactive) throughout. Moreover, the GI50 with SK-MEL-5, in the assay on NCI-H460, in the assay on SN12C, in the assay with MCF7, in the assay on M14 and in the assay with RPMI-8226 was > 100 µM (inactive) each time. Besides, the GI50 with NCI/ADR-RES, in the assay on OVCAR-8, in the assay with SR, with RXF 393, in the assay with OVCAR-4 and in the assay on SW-620 was > 100 µM (inactive) throughout. The GI50 in the assay on UO-31 and with SF-539 was > 100 µM (inactive) each time.

As for `CCCC(CC)c1c(O)c(O)c(C(CC)CCC)c(C(CC)CCC)c1C(CC)CCC` (stereo not given), the GI50 in the assay with 786-0, in the assay with OVCAR-3, in the assay on MDA-MB-435, in the assay with SK-OV-3, with HCC 2998 and in the assay with MDA-N was > 10 µM (inactive) throughout. The GI50 in the assay on SK-MEL-5, with NCI-H460, in the assay on SN12C, in the assay with MCF7, in the assay on M14 and in the assay with RPMI-8226 was > 10 µM (inactive) throughout. Also, the GI50 with NCI/ADR-RES, with OVCAR-8, with SR, in the assay with RXF 393, in the assay with OVCAR-4 and in the assay on SW-620 was > 10 µM (inactive) throughout. The GI50 in the assay with UO-31 and in the assay with SF-539 was > 10 µM (inactive) throughout.

On to `O=C1OC(c2ccccc2)N/C1=C\c1ccc2c(c1)OCO2` (stereo not given), for which the GI50 in the assay on 786-0 is > 100 µM (inactive); in the assay with OVCAR-3, 79.3 µM (inactive); in the assay with MDA-MB-435, > 100 µM (inactive); with SK-OV-3, > 100 µM (inactive); with HCC 2998, 54.2 µM (inactive); in the assay with MDA-N it was > 75.9 µM (inactive). The GI50 with SK-MEL-5 was > 55.8 µM (inactive); in the assay with NCI-H460, > 100 µM (inactive); in the assay on SN12C, > 100 µM (inactive); in the assay on MCF7, > 100 µM (inactive); in the assay on M14 it was > 74 µM (inactive); in the assay on RPMI-8226, 25.2 µM (inactive). The GI50 is > 52.2 µM (inactive) in the assay on NCI/ADR-RES; 43.5 µM (inactive) with OVCAR-8; 28.1 µM (inactive) with SR; > 100 µM (inactive) with RXF 393; 36.7 µM (inactive) in the assay with OVCAR-4; > 88.1 µM (inactive) in the assay with SW-620. Also, the values for the GI50 in the assay with UO-31 and with SF-539 were > 100 µM (inactive) and 29.4 µM (inactive), respectively.

Take `CCC(=O)O[C@H]1CC[C@H]2[C@@H]3CCC4=C/C(=N/NC(=O)c5cccc6c(=O)c7ccccc7[nH]c56)CC[C@]4(C)[C@H]3CC[C@]12C`: the GI50 is 5.11 µM (inactive) in the assay with 786-0; > 25 µM (inactive) in the assay with OVCAR-3; > 25 µM (inactive) with MDA-MB-435; > 25 µM (inactive) in the assay on SK-OV-3; > 25 µM (inactive) in the assay on HCC 2998; > 25 µM (inactive) in the assay with MDA-N. The GI50 with SK-MEL-5, with NCI-H460, with SN12C, in the assay with MCF7, with M14 and in the assay on RPMI-8226 was > 25 µM (inactive) throughout. Besides, the GI50 with NCI/ADR-RES, with OVCAR-8, in the assay with SR, in the assay with RXF 393, in the assay with OVCAR-4 and in the assay on SW-620 was > 25 µM (inactive) in each case. The GI50 in the assay on UO-31 and in the assay on SF-539 was > 25 µM (inactive) throughout.

`COC(=O)/C(C#N)=C(\Nc1ccccc1)N1CCOCC1`: the GI50 in the assay with 786-0, in the assay with OVCAR-3, in the assay with MDA-MB-435, in the assay on SK-OV-3, in the assay on HCC 2998 and with MDA-N was > 100 µM (inactive) each time. Moreover, the GI50 in the assay on SK-MEL-5, with NCI-H460, in the assay on SN12C, in the assay with MCF7, with M14 and in the assay with RPMI-8226 was > 100 µM (inactive) throughout. The GI50 with NCI/ADR-RES, in the assay with OVCAR-8, in the assay on SR, in the assay on RXF 393, in the assay with OVCAR-4 and in the assay on SW-620 was > 100 µM (inactive) each time. Further, the GI50 in the assay with UO-31 and in the assay on SF-539 was > 100 µM (inactive) each time.

As for `CC(=O)Oc1ccc(/C=C/C(=O)OCCOC(=O)/C=C/c2ccc(OC(C)=O)c(OC(C)=O)c2)cc1OC(C)=O`, the GI50 in the assay on 786-0 is 5.06 µM (inactive); with OVCAR-3, 5.36 µM (inactive); with MDA-MB-435, 6.55 µM (inactive); in the assay on SK-OV-3, 13.9 µM (inactive); with HCC 2998, 14.5 µM (inactive); with MDA-N, 7.14 µM (inactive). Further, the GI50 with SK-MEL-5 is 7.36 µM (inactive); in the assay on NCI-H460 it was 11.9 µM (inactive); in the assay with SN12C it was 11.7 µM (inactive); in the assay on MCF7 it was 9.64 µM (inactive); with M14, 10.8 µM (inactive); in the assay with RPMI-8226, 4.12 µM (inactive). Also, the GI50 in the assay with NCI/ADR-RES is 4.06 µM (inactive); in the assay with OVCAR-8, 4.8 µM (inactive); in the assay on SR it was 3.78 µM (inactive); with RXF 393, 7.76 µM (inactive); with OVCAR-4, 4.63 µM (inactive); in the assay on SW-620, 9.38 µM (inactive). Moreover, the results for the GI50 in the assay on UO-31 and in the assay on SF-539 were 4.01 µM (inactive) and 2.72 µM (inactive), respectively.

Source of the values: ChEMBL document CHEMBL1201862, “PubChem BioAssay data set” (2004).
